Patent US7713998B2, “Nitrogenous heterocyclic compound and pharmaceutical use thereof” (Ono Pharmaceutical Co., Ltd., priority 2004, dated 2010)

Columns and labels:
[1] = biological target: recombinant human p38α MAP kinase (Homo sapiens, UniProt Q16539); assay: Study on p38α MAP kinase inhibitory activity (ATF2 phosphorylation, Alpha Screen); format: biochemical; conditions: phosphorylation of biotinylated ATF2 by recombinant human p38α MAP kinase, 30° C. 30 minutes
Experimental: (1) Study on p38α Map Kinase Inhibitory Activity
Using activating transcription factor −2 (hereinafter abbreviated to ATF2) which is a substrate for p38α MAP kinase, the inhibitory action of the compounds of the present invention was investigated on the phosphorylation by a recombinant human p38α MAP kinase.
A kinase buffer (25 mM Tris-HCl (pH 7.5), 5 mM β-glycerophosphate, 2 mM dithiothreitol, 0.1 mM Na3VO4, 10 mM MgCl2) containing a recombinant human p38a MAP kinase was added to a 384-well plate (5 μL)(6.25 ng protein/well) for fluorescence measurement. After addition of a kinase buffer (5 μL) containing the compound of the present invention, the resulting mixture was incubated at room temperature for 20 minutes. […] The amount of a complex of the phosphorylated ATF2 and anti-phosphorylated ATF2 antibody produced by the reaction was measured using an Alpha Screen™ Rabbit Detection kit (Packard #6760607).
The p38α MAP kinase inhibitory activity, which is the effect of the compound of the present invention, was calculated as an inhibition rate (%) according to the following equation: Inhibition rate (%)={(AC−AX)/(AC−AB)}×100
wherein AB is a measured value without addition of the enzyme;
AC is a measured value with addition of the enzyme in the absence of a test compound; and
AX is a measured value with addition of the enzyme in the presence of a test compound. […]

[2] = system: TNF-α production stimulated by lipopolysaccharide (LPS) in THP-1; assay: Inhibitory activity against TNF-α production using human cell lines (THP-1, LPS); format: cell-based; conditions: 1.5 h, THP-1 cells, 90 minutes, TNF-α in supernatant by ELISA
Experimental: (2) Inhibitory Activity Against TNF-α Production Using Human Cell Lines
Using THP-1 which is a human monocytic cell line, the inhibitory effect of the compound of the present invention against TNF-α production stimulated by lipopolysaccharide (LPS) was studied.
Each 50 μL of lipopolysaccharide (LPS; Difco #3120-25-0) prepared to a concentration of 40 ng/mL using RPMI-1640 medium containing 10% fetal calf serum (hereinafter abbreviated to RPMI-1640) and RPMI-1640 containing the compound of the present invention was added to a 96-well plate for cell culture. One hundred μL of the cell suspension of THP-1 (Dainippon Pharmaceutical Co., Ltd, #06-202) prepared to a cell density of 2×10^6 cells/mL using RPMI-1640 was added and cultured for 90 minutes at 37° C. in an incubator (5% CO2, 95% air). After completion of the reaction, the culture medium supernatant was recovered and the amount of produced TNF-α was measured using an ELISA kit (Invitrogen, #850090192).
The inhibitory activity against TNF-α production, which is the effect of the compound of the present invention, was calculated as an inhibition rate (%) by the following equation: Inhibition rate (%)={(AC−AX)/(AC−AB)}×100
wherein AB is a measured value without LPS induction;
AC is a measured value with LPS induction in the absence of a test compound; and
AX is a measured value with LPS induction in the presence of a test compound. […]

[3] = system: TNF-α production induced by lipopolysaccharide (LPS) in rats; assay: Rat cytokine-production model; format: in vivo
Experimental: (3) Rat Cytokine-production Model
The in vivo effect of the compound of the present invention was studied on TNF-α production induced by lipopolysaccharide (LPS) in rats.
A vehicle containing the compound of the present invention was orally administered to male Lew mice (Charles River Japan, Inc.), and after 2 hours, lipopolysaccharide (LPS, 055:B5, Difco) was intravenously administered at the dose of 10 μg/kg (5 animals/group). Only a vehicle was orally administered to a control group (5 animals). Ninety minutes after the LPS treatment, heparinized blood collection was performed via the abdominal cava vein under anesthesia with ether, and blood plasma was obtained by centrifugation (12,000 rpm, 3 minutes, 4° C.). The obtained blood plasma sample was stored at −80° C. until it was used. TNF-α in the blood plasma was measured using an ELISA kit from Genzyme/Techne (#10516).
The inhibitory activity of the compound of the present invention against TNF-α production was calculated as an inhibition rate (%) according to the following equation: Inhibition rate (%)={(AC−AX)/AC}×100
wherein AC is a measured value in case where no test compound was administered under LPS induction, and
AX is a measured value in case where a test compound was administered under LPS induction.

recombinant human p38α MAP kinase, sequence (Q16539 whole entry): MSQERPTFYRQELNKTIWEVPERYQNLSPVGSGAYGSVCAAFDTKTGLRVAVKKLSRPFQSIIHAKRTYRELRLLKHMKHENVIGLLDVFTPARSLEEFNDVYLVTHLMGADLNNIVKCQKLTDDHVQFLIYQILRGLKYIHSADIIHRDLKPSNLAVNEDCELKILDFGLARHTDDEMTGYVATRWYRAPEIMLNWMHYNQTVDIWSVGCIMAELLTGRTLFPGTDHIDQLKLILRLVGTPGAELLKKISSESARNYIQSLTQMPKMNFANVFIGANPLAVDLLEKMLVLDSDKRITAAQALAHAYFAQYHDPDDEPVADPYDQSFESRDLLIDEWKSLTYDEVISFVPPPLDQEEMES

| IC50 [1] [nM] | IC50 [2] [nM] | SMILES | TNF-α production inhibitory activity stronger by a factor than that of the compound disclosed in WO 01/030778 ([3]; comparison in same experimental model (1 mg/kg vs 10 mg/kg)) | inhibition against in vivo TNF-α production induced by LPS stimulation ([3]; dose of 1 mg/kg orally, LPS 10 μg/kg i.v. after 2 hours, plasma 90 minutes after LPS) [%] | inhibition against in vivo TNF-α production induced by LPS stimulation ([3]; dose of 10 mg/kg, same experimental model) [%] |
| --- | --- | --- | --- | --- | --- |
| 1.4 | 1.4 | CN1CCC(c2nc(-c3ccc(=O)n(-c4c(Cl)cccc4Cl)c3)c(-c3ccc(F)cc3Cl)s2)CC1 [Example 10(2), 5-[5-(2-chloro-4-fluorophenyl)-2-(1-methylpiperidin-4-yl)-1,3-thiazol-4-yl]-1-(2,6-dichlorophenyl)pyridin-2(1H)-one] | ≥ 10 | 90 |  |
|  |  | C[C@H](Nc1cc(-c2sc(C3CCN(C)CC3)nc2-c2ccc(F)cc2)ccn1)c1ccccc1 [compound disclosed in WO 01/030778, 4-[4-(4-fluorophenyl)-2-(1-methyl-4-piperidinyl)-1,3-thiazol-5-yl]-N-[(1S)-1-phenylethyl]-2-pyridinamine, reference compound] |  |  | 95 |
